Calls of active or inactive are those of the source. The calls are words filed in the database; no cut-off is given here.
Experiments:
[1] = Inhibition of CSF1-induced human BMDM cell proliferation; assay type: functional, cell-based
Mus musculus [2] = assay: Inhibition of FMS in B6C3F1 mouse assessed as reduction in CSF1-induced C-fos levels at 5 mg/kg, po; assay type: functional, organism-based; design: dose 5 mg/kg
Mus musculus [3] = assay: Inhibition of FMS in B6C3F1 mouse assessed as reduction in CSF1-induced C-fos levels at 20 mg/kg, po; assay type: functional, organism-based; design: dose 20 mg/kg
Mus musculus [4] = assay: Inhibition of FMS in B6C3F1 mouse assessed as reduction in CSF1-induced C-fos levels at 50 mg/kg, po; assay type: functional, organism-based; design: dose 50 mg/kg
[5] = biological target: T1, Macrophage colony-stimulating factor 1 receptor (Homo sapiens, UniProt P07333); assay: Inhibition of human cytoplasmic macrophage colony-stimulating factor 1 receptor by fluorescence polarization
[6] = Half life in rat at 2 mg/kg, iv and 10 mg/kg, po; assay type: ADME, organism-based; conditions: in vivo
[7] = Oral bioavailability in rat at 10 mg/kg; assay type: ADME, organism-based; conditions: in vivo
[8] = Cmax in rat at 2 mg/kg, iv and 10 mg/kg, po; assay type: ADME, organism-based; conditions: in vivo
[9] = biological target: Mast/stem cell growth factor receptor Kit (Homo sapiens, UniProt P10721); assay: Inhibition of KIT
[10] = Volume of distribution in rat at 2 mg/kg, iv and 10 mg/kg, po; assay type: ADME, organism-based; conditions: in vivo
[11] = biological target: T2, Receptor-type tyrosine-protein kinase FLT3 (Homo sapiens, UniProt P36888); assay: Inhibition of FLT3
T2 sequence (P36888 whole entry): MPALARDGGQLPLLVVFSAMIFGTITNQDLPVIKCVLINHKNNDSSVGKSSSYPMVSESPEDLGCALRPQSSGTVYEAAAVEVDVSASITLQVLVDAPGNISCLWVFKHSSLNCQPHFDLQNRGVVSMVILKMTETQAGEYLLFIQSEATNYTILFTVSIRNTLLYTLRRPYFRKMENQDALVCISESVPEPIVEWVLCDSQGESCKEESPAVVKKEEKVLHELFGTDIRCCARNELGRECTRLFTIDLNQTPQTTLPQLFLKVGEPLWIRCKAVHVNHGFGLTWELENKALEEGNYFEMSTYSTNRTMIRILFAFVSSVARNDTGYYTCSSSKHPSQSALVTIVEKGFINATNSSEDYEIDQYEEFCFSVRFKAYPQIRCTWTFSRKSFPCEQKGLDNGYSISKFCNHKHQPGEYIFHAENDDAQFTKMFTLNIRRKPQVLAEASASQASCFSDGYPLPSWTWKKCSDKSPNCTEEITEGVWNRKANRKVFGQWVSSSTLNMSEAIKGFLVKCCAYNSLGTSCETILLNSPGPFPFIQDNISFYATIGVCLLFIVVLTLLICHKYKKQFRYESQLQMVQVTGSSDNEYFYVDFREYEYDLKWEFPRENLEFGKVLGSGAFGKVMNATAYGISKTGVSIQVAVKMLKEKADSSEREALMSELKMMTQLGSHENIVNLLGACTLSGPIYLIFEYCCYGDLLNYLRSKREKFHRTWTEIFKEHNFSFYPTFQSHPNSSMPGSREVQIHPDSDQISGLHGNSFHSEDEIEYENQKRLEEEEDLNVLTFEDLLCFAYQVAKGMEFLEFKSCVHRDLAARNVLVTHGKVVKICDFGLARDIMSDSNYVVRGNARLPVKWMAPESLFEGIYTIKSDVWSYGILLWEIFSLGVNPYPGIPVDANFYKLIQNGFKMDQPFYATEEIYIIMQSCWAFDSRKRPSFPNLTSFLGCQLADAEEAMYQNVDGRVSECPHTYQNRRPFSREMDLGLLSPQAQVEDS

[12] = Clearance in rat at 2 mg/kg, iv and 10 mg/kg, po; assay type: ADME, organism-based; conditions: in vivo
[13] = biological target: Platelet-derived growth factor receptor beta (Homo sapiens, UniProt P09619); assay: Inhibition of PDGFRbeta
[14] = biological target: T1, Macrophage colony-stimulating factor 1 receptor; assay: Inhibition of human cytoplasmic macrophage colony-stimulating factor 1 receptor at 5 uM by fluorescence polarization

T1 sequence (P07333 whole entry): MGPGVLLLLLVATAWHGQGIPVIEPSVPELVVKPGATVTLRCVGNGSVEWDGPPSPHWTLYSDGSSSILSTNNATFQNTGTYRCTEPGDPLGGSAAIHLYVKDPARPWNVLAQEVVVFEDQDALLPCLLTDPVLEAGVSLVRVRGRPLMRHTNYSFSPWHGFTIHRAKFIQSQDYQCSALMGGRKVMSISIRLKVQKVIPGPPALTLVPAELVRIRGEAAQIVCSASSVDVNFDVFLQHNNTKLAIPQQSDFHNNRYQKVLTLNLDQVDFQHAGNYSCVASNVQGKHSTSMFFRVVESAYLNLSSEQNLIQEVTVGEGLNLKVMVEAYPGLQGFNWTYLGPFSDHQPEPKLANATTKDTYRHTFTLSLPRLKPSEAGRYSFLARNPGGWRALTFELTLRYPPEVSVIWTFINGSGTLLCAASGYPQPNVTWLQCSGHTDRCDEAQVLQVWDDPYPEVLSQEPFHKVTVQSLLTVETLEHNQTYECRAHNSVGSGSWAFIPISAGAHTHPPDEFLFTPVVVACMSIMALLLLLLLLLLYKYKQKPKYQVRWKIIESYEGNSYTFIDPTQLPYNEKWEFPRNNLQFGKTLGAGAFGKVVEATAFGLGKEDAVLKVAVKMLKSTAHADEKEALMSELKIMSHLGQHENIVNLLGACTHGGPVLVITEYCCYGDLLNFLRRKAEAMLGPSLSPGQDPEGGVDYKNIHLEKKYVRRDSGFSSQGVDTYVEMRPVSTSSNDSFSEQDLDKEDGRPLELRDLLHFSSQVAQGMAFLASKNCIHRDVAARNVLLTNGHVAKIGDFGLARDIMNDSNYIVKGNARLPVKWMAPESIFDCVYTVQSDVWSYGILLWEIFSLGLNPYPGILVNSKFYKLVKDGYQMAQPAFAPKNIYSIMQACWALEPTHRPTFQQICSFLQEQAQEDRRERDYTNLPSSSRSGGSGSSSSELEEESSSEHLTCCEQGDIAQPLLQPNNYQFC
Platelet-derived growth factor receptor beta, sequence (P09619 whole entry): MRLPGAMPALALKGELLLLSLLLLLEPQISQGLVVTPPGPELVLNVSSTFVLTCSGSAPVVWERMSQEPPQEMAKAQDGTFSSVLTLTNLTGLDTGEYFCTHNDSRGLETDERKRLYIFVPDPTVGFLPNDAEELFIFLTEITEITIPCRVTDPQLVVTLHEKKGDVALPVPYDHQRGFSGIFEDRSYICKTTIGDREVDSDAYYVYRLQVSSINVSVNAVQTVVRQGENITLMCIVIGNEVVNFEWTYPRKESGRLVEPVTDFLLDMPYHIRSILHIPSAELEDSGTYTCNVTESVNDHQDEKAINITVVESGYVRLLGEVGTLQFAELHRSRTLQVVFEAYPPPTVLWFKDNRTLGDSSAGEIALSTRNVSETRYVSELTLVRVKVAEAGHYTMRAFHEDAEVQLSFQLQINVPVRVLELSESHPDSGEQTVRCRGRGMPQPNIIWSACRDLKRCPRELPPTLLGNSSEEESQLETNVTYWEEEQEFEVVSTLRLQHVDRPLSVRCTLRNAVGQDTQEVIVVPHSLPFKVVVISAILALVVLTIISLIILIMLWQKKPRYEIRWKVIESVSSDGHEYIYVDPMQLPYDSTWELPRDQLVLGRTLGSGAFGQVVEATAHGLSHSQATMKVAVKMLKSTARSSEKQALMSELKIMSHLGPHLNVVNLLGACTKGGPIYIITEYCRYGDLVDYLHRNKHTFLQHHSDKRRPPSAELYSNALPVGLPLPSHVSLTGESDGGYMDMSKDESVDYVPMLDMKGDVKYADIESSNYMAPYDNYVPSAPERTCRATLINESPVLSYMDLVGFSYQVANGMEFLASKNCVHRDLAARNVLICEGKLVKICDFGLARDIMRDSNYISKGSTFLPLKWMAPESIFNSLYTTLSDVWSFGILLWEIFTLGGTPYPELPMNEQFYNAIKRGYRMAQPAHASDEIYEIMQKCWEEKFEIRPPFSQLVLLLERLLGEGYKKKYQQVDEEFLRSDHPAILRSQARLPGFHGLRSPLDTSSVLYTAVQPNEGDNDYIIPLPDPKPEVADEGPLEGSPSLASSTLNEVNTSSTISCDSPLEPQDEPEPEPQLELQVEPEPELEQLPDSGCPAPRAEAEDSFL
Mast/stem cell growth factor receptor Kit, sequence (P10721 whole entry): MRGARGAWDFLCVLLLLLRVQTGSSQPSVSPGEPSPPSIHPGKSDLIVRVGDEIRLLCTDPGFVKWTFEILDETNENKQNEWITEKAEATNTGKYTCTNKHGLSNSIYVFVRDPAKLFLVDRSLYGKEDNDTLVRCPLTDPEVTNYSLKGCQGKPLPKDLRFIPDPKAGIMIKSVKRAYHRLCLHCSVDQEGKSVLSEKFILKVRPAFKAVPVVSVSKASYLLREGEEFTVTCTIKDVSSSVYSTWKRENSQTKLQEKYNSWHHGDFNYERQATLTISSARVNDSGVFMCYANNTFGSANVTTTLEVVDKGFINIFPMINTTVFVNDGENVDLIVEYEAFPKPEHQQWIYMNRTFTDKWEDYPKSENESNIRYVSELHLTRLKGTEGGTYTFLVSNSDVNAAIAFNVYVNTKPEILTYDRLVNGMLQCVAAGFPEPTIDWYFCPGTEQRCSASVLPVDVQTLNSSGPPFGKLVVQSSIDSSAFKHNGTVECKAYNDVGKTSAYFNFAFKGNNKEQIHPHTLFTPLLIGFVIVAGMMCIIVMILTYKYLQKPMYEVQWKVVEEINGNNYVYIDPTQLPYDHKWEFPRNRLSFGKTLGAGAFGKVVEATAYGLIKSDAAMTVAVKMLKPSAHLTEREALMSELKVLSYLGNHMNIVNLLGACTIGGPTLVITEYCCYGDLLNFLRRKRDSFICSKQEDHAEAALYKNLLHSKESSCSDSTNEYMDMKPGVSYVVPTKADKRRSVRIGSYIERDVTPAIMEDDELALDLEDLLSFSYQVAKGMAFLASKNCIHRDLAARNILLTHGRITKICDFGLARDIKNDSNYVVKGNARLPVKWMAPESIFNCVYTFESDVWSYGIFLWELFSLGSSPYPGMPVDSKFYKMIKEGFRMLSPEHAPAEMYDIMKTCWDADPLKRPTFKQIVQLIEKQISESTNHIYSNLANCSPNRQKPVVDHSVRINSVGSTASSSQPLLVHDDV

## CCc1ccc(-c2c(-c3cnc(C)[nH]3)c(=O)[nH]c3ccc(C#N)cc23)cc1
[1]
  IC50: 5 nM
Mus musculus [2]
  Activity: Active
Mus musculus [3]
  Activity: Active
Mus musculus [4]
  Activity: Active

## Cc1cc(-c2c(-c3ccccc3)c3cc(N)ccc3[nH]c2=O)on1
[5]
  IC50: > 5000 nM

## CCc1ccc(-c2c(-c3c[nH]c(C)n3)c(=O)[nH]c3ccc(C#N)cc23)cc1
[6]
  half-life: 1.07 h
[7]
  bioavailability: 56%
[8]
  Cmax: 317 ng/mL
[9]
  IC50: 170 nM
[10]
  Vd: 8.6 L/kg
[11]
  IC50: 47 nM
[12]
  clearance: 93 mL/min/kg
[13]
  IC50: > 1000 nM

## Cc1cc(-c2c(-c3ccccc3)c3ccccc3[nH]c2=O)on1
[5]
  IC50: > 5000 nM

## Cc1cc(-c2c(-c3ccccc3)c3cnccc3[nH]c2=O)on1
[14]
  inhibition: 8%

## Cc1cc(-c2c(-c3ccccc3)c3ncccc3[nH]c2=O)on1
[5]
  IC50: > 20000 nM

## CCc1ccc(-c2c(-c3cnc(C)[nH]3)c(=O)[nH]c3ccc(Cl)cc23)cc1
[1]
  IC50: 28 nM
[9]
  IC50: 67 nM
[11]
  IC50: 34 nM
[13]
  IC50: > 1000 nM
